# Test: ADME assays (Eurofins, ChemPartner)
# Assay type: in vitro ADME
# Conditions: overall statement
# Protocol: (1 picture or pasted object on this page, not shown here)
# Comparison Between WT and S242A5.46 psychLight Variants. Activity in WT and S242A5.46 mutant forms of PsychLight was quantified by deriving ligand activity ratios (log(Emax/EC50)). […]
# and (+)-JRT were fit to a log(agonist) vs. response (three parameters) curve. The Emax/EC50 analysis was performed as previously described in detail by others (16):
# Response = Basal + E!"# − Basal where Emax and Basal represent the top and bottom asymptotes of the curve fit, respectively; EC50 represents the concentration that gives a response halfway between Emax and Basal; and Log[A] is the logarithm of the agonist concentration. Then, ligand activity ratios, log(Emax/EC50) were calculated for each test ligand and statistical comparisons made between each other and between genotypes using a two-way ANOVA and significant interaction effects followed by a Šídák's multiple comparisons test.
# ADME and hERG Inhbition Assays. […]
# Briefly, 96 well plates were coated with poly-D-lysine and approximately 15,000 cells/well. […] Images were analyzed using the Simple Neurite Tracer and Sholl analysis plug-ins for ImageJ Fiji (version 1.51N). […] All images were taken and analyzed by an experimenter blinded to treatment conditions.
# Spinogenesis Assays Using Cultured Rat Cortical Neurons. […] Images were analyzed using ImageJ Fiji (version 1.51N). […]
structure (smiles),measurement,value
CCN(CC)C(=O)[C@@H]1C=C2c3cccc4ccn(c34)C[C@H]2N(C)C1 [(+)-JRT],ADME properties,excellent

# Reference: publication PMC12037037 (Proceedings of the National Academy of Sciences of the …, 2025)
